Laboratory results published in US10532054B2, “Compounds for the prevention and treatment of cardiovascular diseases” (Resverlogix Corp., priority 2007, dated 2020).

SMILES	melting point
COc1cc(OC)c2c(=O)[nH]c(-c3cc(C)c(OCCN4CCOCC4)c(C)c3)cc2n1 [Example 50, 7-(3,5-dimethyl-4-(2-morpholinoethoxy)phenyl)-2,4-dimethoxy-1,6-naphthyridin-5(6H)-one]	212.5 to 212.9 °C
COc1cc2cc(-c3cc(C)c(O)c(C)c3)[nH]c(=O)c2c(OC)c1CN1CCOCC1 [Example 51, 3-(4-hydroxy-3,5-dimethylphenyl)-6,8-dimethoxy-7-(morpholinomethyl)isoquinolin-1(2H)-one]	158 to 161 °C
COc1cc2nc(-c3cc(C)c(O)c(C)c3)[nH]c(=O)c2cc1OC [Example 52, 2-(4-hydroxy-3,5-dimethylphenyl)-6,7-dimethoxyquinazolin-4(3H)-one]	> 300 °C
CC(=O)Nc1ccc2nc(-c3cc(C)c(O)c(C)c3)[nH]c(=O)c2c1 [Example 54, N-(2-(4-hydroxy-3,5-dimethylphenyl)-4-oxo-3,4-dihydroquinazolin-6-yl)acetamide]	336.5 °C (dec.)
COc1cc2nc(-c3cc(C)c(OCC(N)=O)c(C)c3)[nH]c(=O)c2cc1OC [Example 55, 2-(4-(6,7-dimethoxy-4-oxo-3,4-dihydroquinazolin-2-yl)-2,6-dimethylphenoxy)acetamide]	354 to 356 °C
COc1cc2nc(-c3cc(C)c(OCCO)c(C)c3)[nH]c(=O)c2cc1OC [Example 58, 2-(4-(2-hydroxyethoxy)-3,5-dimethylphenyl)-6,7-dimethoxyquinazolin-4(3H)-one]	> 300 °C
COc1cc(OC)c2c(=O)[nH]c(-c3cc(C)c(O)c(C)c3)nc2n1 [Example 68, 2-(4-hydroxy-3,5-dimethylphenyl)-5,7-dimethoxypyrido[2,3-d]pyrimidin-4(3H)-one]	297 to 299 °C

More lines, now with the values ahead:

melting point	SMILES
250.6 to 251.1 °C	COc1cc(OC)c2c(=O)[nH]c(-c3ccc(CCC(=O)O)cc3)nc2c1 [Example 53, 3-(4-(5,7-dimethoxy-4-oxo-3,4-dihydroquinazolin-2-yl)phenyl)propanoic acid]
287 to 288 °C (dec.)	COc1cc(OC)c2c(=O)[nH]c(-c3ccc(OCCO)c(Cl)c3)nc2c1 [Example 56, 2-(3-chloro-4-(2-hydroxyethoxy)phenyl)-5,7-dimethoxyquinazolin-4(3H)-one]
246 to 248 °C	COc1cc(OC)c2c(=O)[nH]c(-c3ccc(OCCO)c(OC)c3)nc2c1 [Example 57, 2-(4-(2-hydroxyethoxy)-3-methoxyphenyl)-5,7-dimethoxyquinazolin-4(3H)-one]
190 to 192 °C	COc1cc(OC)c2c(=O)[nH]c(-c3cc(C)c(NC(=O)CO)c(C)c3)nc2c1 [Example 60, N-(4-(5,7-dimethoxy-4-oxo-3,4-dihydroquinazolin-2-yl)-2,6-dimethylphenyl)-2-hydroxyacetamide]
224.9 to 225.4 °C	COc1cc(OC)c2c(=O)[nH]c(-c3cc(C)c(OCCO)c(C)c3)cc2n1 [Example 61, 7-(4-(2-hydroxyethoxy)-3,5-dimethylphenyl)-2,4-dimethoxy-1,6-naphthyridin-5(6H)-one]
262 to 263 °C (dec.)	COc1cc(OC)c2c(=O)[nH]c(-c3cc(C)c(OC)c(C)c3)cc2n1 [Example 63, 2,4-dimethoxy-7-(4-methoxy-3,5-dimethylphenyl)-1,6-naphthyridin-5(6H)-one]
270 to 272 °C	COc1cc(OC)c2c(=O)[nH]c(-c3cc(C)c(OCC(=O)O)c(C)c3)nc2c1 [Example 64, 2-(4-(5,7-dimethoxy-4-oxo-3,4-dihydroquinazolin-2-yl)-2,6-dimethylphenoxy)acetic acid]
318 to 319 °C	COc1cc(OC)c2c(=O)[nH]c(-c3ccc(NC(=O)CO)cc3)nc2c1 [Example 65, N-(4-(5,7-dimethoxy-4-oxo-3,4-dihydroquinazolin-2-yl)phenyl)-2-hydroxyacetamide]
282.7 to 284.5 °C	COc1cc(OC)c2c(=O)[nH]c(-c3ccc(OC)c(CN4CCOCC4)c3)nc2c1 [Example 69, 5,7-dimethoxy-2-(4-methoxy-3-(morpholinomethyl)phenyl)quinazolin-4(3H)-one]
